Measured values as given in patent US9113629B2, “4-amino-6-(4-substituted-phenyl)-picolinates and 6-amino-2-(4-substituted-phenyl)-pyrimidine-4-carboxylates and their use as herbicides” (DOW AGROSCIENCES LLC, priority 2013, dated 2015).
Where two headings read alike, the source gives them in different places.

Assays:
[1] = system: Key Broadleaf Weed and Crop Species; assay: Post-emergent Test II herbicidal activity (Table 5); format: in vivo; conditions: post-emergence, 336 h, post-emergent, 14 days after application; for pest or weed control at 70 g/ha: 70 g ai/ha; for pest or weed control at 140 g/ha: 140 g ai/ha
In short: (§1)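 Test species were raised 7–21 d under greenhouse conditions until reaching the first or second true leaf, sprayed with formulated compound at 187 L/ha, and kept subirrigated to avoid wash-off. Fourteen days later, damage was rated visually on a 0–100% scale against untreated plants.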

[2] = system: Key Grass and Sedge Weeds as well as Grass Crops; assay: Post-emergent Test II herbicidal activity (Table 6); format: in vivo; conditions: post-emergence, 336 h; for pest or weed control at 70 g/ha: application rate 70 g ai/ha; for pest or weed control at 140 g/ha: application rate 140 g ai/ha
In short: as §1

[3] = ABUTH: velvetleaf (Abutilon theophrasti), read-out: Visual Growth Reduction (%) 14 Days After Application ABUTH
[4] = AMARE: redroot pigweed (Amaranthus retroflexus), read-out: Visual Growth Reduction (%) 14 Days After Application AMARE
[5] = BRSNN: oilseed-rape, canola (Brassica napus), read-out: Visual Growth Reduction (%) 14 Days After Application BRSNN
[6] = CHEAL: lambsquarters (Chenopodium album), read-out: Visual Growth Reduction (%) 14 Days After Application CHEAL
[7] = EPHHL: wild poinsettia (Euphorbia heterophylla), read-out: Visual Growth Reduction (%) 14 Days After Application EPHHL
[8] = HELAN: sunflower (Helianthus annuus), read-out: Visual Growth Reduction (%) 14 Days After Application HELAN
[9] = VIOTR: wild pansy (Viola tricolor), read-out: Visual Growth Reduction (%) 14 Days After Application VIOTR
[10] = Triticum aestivum, TRZSS (wheat), read-out: Visual Growth Reduction (%) 14 Days After Application, TRZSS
[11] = CYPES: yellow nutsedge (Cyperus esculentus), read-out: Visual Growth Reduction (%) 14 Days After Application, CYPES
[12] = DIGSA: crabgrass (Digitaria sanguinalis), read-out: Visual Growth Reduction (%) 14 Days After Application, DIGSA
[13] = ECHCG: barnyardgrass (Echinochloa crus-galli), read-out: Visual Growth Reduction (%) 14 Days After Application, ECHCG
[14] = ORYSA: rice (Oryza sativa), read-out: Visual Growth Reduction (%) 14 Days After Application, ORYSA
[15] = SETFA: giant foxtail (Setaria faberi), read-out: Visual Growth Reduction (%) 14 Days After Application, SETFA
[16] = SORVU: grain sorghum (Sorghum vulgare), read-out: Visual Growth Reduction (%) 14 Days After Application, SORVU
[17] = ZEAMX: maize, corn (Zea mays), read-out: Visual Growth Reduction (%) 14 Days After Application, ZEAMX

SMILES: C#Cc1ccc(-c2nc(C(=O)OC)c(C=C)c(N)c2F)cc1 [Compound 60, methyl 4-amino-6-(4-ethynylphenyl)-5-fluoro-3-vinylpicolinate]
- pest or weed control at 70 g/ha [1, 3]: 0 to 29%
- pest or weed control at 140 g/ha [1, 3]: 0 to 29%
- pest or weed control at 70 g/ha [1, 4]: 0 to 29%
- pest or weed control at 140 g/ha [1, 4]: 0 to 29%
- pest or weed control at 70 g/ha [1, 5]: 0 to 29%
- pest or weed control at 140 g/ha [1, 5]: 0 to 29%
- pest or weed control at 70 g/ha [1, 6]: 0 to 29%
- pest or weed control at 140 g/ha [1, 6]: 0 to 29%
- pest or weed control at 70 g/ha [1, 7]: 0 to 29%
- pest or weed control at 140 g/ha [1, 7]: 0 to 29%
- pest or weed control at 70 g/ha [1, 8]: 45 to 59%
- pest or weed control at 140 g/ha [1, 8]: 75 to 84%
- pest or weed control at 70 g/ha [1, 9]: 0 to 29%
- pest or weed control at 140 g/ha [1, 9]: 0 to 29%
- pest or weed control at 70 g/ha [2, 10]: 0 to 29%
- pest or weed control at 140 g/ha [2, 10]: 0 to 29%
- pest or weed control at 70 g/ha [2, 11]: 0 to 29%
- pest or weed control at 140 g/ha [2, 11]: 0 to 29%
- pest or weed control at 70 g/ha [2, 12]: 0 to 29%
- pest or weed control at 140 g/ha [2, 12]: 0 to 29%
- pest or weed control at 70 g/ha [2, 13]: 0 to 29%
- pest or weed control at 140 g/ha [2, 13]: 0 to 29%
- pest or weed control at 70 g/ha [2, 14]: 0 to 29%
- pest or weed control at 140 g/ha [2, 14]: 0 to 29%
- pest or weed control at 70 g/ha [2, 15]: 0 to 29%
- pest or weed control at 140 g/ha [2, 15]: 0 to 29%
- pest or weed control at 70 g/ha [2, 16]: 0 to 29%
- pest or weed control at 140 g/ha [2, 16]: 0 to 29%
- pest or weed control at 70 g/ha [2, 17]: 0 to 29%
- pest or weed control at 140 g/ha [2, 17]: 0 to 29%
